Measured values as given in patent US10512634B2, “Benzimidazole derivates useful as inhibitors of mammalian histone deacetylase activity” (KANCERA AB, priority 2015, dated 2019).
Read-outs that look alike come from different tables or passages of the source.

Key:
[1] = target: HDAC6 (Homo sapiens (Human), UniProt Q9UBN7); test: HDAC in vitro enzymatic assay (fluorescence); type: biochemical
Description: Biological Tests Method for Measurement of Enzymatic Activity of HDACs Materials & Methods
All Examples were tested in HDAC1, 2, 3, 6 and 8 in vitro enzymatic assays. The assay principle is well known (Hauser et al. 2009, Bradner et al. 2010) and all necessary reagents like enzymes, substrates, developer and reference compounds are commercially available (see e.g. BPS Biosciences http://www.bpsbioscience.com/). A series of dilutions of the compounds were prepared with a top concentration of 200 μM (2 μM for HDAC6). The enzymatic reactions were conducted in a mixture containing assay buffer, bovine serum albumin, HDAC substrate, and a test compound. After enzymatic reaction, developer was added and after an additional incubation time, fluorescence intensity was measured at an excitation wavelength of 360 nm and an emission wavelength of 460 nm. A selection of the Examples were tested in a full HDAC panel containing HDAC1, 2, 3, 4, 5, 6, 7, 8, 9, 10 and 11 in vitro enzymatic assays. The tests were performed as above except that a series of dilutions of the compounds were prepared with a top concentration of 10 μM for all HDACs.

[2] = tested on: U266 (multiple myelom); test: CellTiter-Blue cell viability assay; type: cell-based; conditions: Homo sapiens, read-out: IC50 U266 (cell viability)
Description: (§1) Method for Measurement of Cell Viability
(§2) The CellTiter-Blue® Cell Viability Assay (Promega) provides a homogeneous, fluorometric method for estimating the number of viable cells present in multi-well plates. The assay uses the indicator dye resazurin to measure the metabolic capacity of cells. Viable cells retain the ability to reduce resazurin into resorufin, which is highly fluorescent.
(§3) Stock solutions (10 mM in DMSO) of compounds were serially diluted 1:2 in 11 concentrations. 50 nL/well (10 mM compound stock in DMSO) was acoustically dispensed in 384-well assay plates with an acoustic dispenser (EDC Biosystems ATS-100AV). Final starting concentration in the assay was 20 μM (0.2% DMSO) for test compounds. […] After 72 hours, Celltiter Blue reagent (Promega #G8081) was diluted 1:10 with PBS and then added to wells (5 μL/well). The plates were incubated for 2 hours following addition of reagent. […] Results were calculated as % cell viability compared to background (cells treated with 0.2% DMSO).

[3] = tested on: PaCa2 (pancreatic); test: CellTiter-Blue cell viability assay; type: cell-based; conditions: read-out: IC50 PaCa2 (cell viability)
Description: as §1, §2, §3

[4] = tested on: PBMC (peripheral blood mononuclear cells from healthy donors); test: CellTiter-Blue cell viability assay; type: cell-based; conditions: read-out: IC50 healthy PBMC (cell viability)
Description: as §1, §2, §3

[5] = tested on: AMO-1 (plasmacytom); test: CellTiter-Blue cell viability assay; type: cell-based; conditions: Homo sapiens, read-out: IC50 AMO-1 (cell viability)
Description: as §1, §2, §3

[6] = target: HDAC2 (Homo sapiens (Human), UniProt Q92769); test: HDAC in vitro enzymatic assay (fluorescence); conditions: read-out: IC50 HDAC2
[7] = target: HDAC1 (Homo sapiens (Human), UniProt Q13547); test: HDAC in vitro enzymatic assay (fluorescence)
[8] = target: HDAC3 (Homo sapiens (Human), UniProt O15379); test: HDAC in vitro enzymatic assay (fluorescence); conditions: read-out: IC50 HDAC3
[9] = target: HDAC8 (Homo sapiens (Human), UniProt Q9BY41); test: HDAC in vitro enzymatic assay (fluorescence); conditions: read-out: IC50 HDAC8
[10] = target: HDAC4 (Homo sapiens (Human), UniProt P56524); test: HDAC in vitro enzymatic assay (full HDAC panel); conditions: read-out: IC50 HDAC4, top concentration 10 μM
[11] = target: HDAC5 (Homo sapiens (Human), UniProt Q9UQL6); test: HDAC in vitro enzymatic assay (full HDAC panel); conditions: read-out: IC50 HDAC5, top concentration 10 μM
[12] = target: HDAC11 (Homo sapiens (Human), UniProt Q96DB2); test: HDAC in vitro enzymatic assay (full HDAC panel); conditions: read-out: IC50 HDAC11, top concentration 10 μM
[13] = target: HDAC9 (Homo sapiens (Human), UniProt Q9UKV0); test: HDAC in vitro enzymatic assay (full HDAC panel); conditions: read-out: IC50 HDAC9, top concentration 10 μM
[14] = target: HDAC7 (Homo sapiens (Human), UniProt Q8WUI4); test: HDAC in vitro enzymatic assay (full HDAC panel); conditions: read-out: IC50 HDAC7, top concentration 10 μM
[15] = target: HDAC10 (Homo sapiens (Human), UniProt Q969S8); test: HDAC in vitro enzymatic assay (full HDAC panel); conditions: read-out: IC50 HDAC10, top concentration 10 μM
[16] = top concentration 2 μM, read-out: IC50 values for inhibition of HDAC6
[17] = U-266, U266 cells, 72 hours of treatment
[18] = PaCa-2, PaCa2 cells, 72 hours of treatment
[19] = healthy PBMC, 72 hours of treatment
[20] = AMO1, AMO-1 cells, 72 hours of treatment
[21] = selectivity profiling, top concentration 200 μM
[22] = selectivity profiling, top concentration 2 μM, read-out: IC50 HDAC6
[23] = read-out: IC50 HDAC1, selectivity profiling, top concentration 200 μM
[24] = full HDAC panel, top concentration 10 μM

Chain of HDAC3 (O15379 whole entry): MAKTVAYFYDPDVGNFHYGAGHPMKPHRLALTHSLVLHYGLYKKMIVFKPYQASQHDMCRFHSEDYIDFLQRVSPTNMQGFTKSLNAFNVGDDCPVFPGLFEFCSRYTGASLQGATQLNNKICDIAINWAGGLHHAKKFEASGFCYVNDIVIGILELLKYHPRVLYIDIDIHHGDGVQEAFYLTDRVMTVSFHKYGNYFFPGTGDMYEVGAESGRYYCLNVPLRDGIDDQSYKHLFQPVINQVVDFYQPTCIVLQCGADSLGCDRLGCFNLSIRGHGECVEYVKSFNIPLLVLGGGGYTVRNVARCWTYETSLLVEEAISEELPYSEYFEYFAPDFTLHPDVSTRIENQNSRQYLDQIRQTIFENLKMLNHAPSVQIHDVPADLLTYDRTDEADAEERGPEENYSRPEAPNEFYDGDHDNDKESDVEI
Chain of HDAC3 (Q9Y618 395-489 partner): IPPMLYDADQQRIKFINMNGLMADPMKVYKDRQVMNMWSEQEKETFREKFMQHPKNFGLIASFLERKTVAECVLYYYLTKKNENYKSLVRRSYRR
Chain of HDAC1 (Q13547 whole entry): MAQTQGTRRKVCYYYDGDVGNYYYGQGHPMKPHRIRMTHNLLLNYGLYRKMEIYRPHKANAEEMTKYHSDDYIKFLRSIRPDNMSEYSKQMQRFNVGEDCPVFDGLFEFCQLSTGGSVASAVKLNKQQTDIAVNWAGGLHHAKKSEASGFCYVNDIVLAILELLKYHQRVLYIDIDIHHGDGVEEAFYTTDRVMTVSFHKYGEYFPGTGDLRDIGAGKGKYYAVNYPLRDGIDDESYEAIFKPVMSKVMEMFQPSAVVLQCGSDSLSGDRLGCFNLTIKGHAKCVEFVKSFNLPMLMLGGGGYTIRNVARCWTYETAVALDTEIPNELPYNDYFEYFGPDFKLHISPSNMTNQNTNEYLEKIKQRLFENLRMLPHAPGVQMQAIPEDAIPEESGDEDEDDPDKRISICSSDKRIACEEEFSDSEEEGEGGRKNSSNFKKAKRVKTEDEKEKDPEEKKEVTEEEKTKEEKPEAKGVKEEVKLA
Chain of HDAC8 (Q9BY41 whole entry): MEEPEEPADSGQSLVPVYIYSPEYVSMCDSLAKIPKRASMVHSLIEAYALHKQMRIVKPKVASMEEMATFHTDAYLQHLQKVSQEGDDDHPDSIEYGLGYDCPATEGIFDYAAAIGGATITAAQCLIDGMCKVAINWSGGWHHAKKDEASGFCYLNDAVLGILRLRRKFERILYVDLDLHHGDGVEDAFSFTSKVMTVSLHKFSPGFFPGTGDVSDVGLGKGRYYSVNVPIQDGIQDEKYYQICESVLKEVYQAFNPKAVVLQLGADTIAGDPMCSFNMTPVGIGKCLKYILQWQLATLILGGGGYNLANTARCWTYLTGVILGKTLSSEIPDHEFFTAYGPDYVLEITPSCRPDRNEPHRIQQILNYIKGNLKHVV
Chain of HDAC2 (Q92769 whole entry): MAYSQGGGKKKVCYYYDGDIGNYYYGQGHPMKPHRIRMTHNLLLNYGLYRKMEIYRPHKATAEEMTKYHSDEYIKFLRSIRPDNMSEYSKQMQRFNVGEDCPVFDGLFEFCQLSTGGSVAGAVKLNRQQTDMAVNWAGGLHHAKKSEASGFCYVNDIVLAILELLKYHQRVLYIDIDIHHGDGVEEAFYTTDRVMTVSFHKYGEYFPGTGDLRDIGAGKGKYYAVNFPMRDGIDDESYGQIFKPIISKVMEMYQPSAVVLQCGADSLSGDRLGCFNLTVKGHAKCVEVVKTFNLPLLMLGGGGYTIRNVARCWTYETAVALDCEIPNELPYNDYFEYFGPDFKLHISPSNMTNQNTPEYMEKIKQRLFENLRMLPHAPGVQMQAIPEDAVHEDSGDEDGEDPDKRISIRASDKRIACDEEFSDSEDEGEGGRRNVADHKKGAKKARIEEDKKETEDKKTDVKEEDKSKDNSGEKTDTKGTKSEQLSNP
Chain of HDAC7 (Q8WUI4 whole entry): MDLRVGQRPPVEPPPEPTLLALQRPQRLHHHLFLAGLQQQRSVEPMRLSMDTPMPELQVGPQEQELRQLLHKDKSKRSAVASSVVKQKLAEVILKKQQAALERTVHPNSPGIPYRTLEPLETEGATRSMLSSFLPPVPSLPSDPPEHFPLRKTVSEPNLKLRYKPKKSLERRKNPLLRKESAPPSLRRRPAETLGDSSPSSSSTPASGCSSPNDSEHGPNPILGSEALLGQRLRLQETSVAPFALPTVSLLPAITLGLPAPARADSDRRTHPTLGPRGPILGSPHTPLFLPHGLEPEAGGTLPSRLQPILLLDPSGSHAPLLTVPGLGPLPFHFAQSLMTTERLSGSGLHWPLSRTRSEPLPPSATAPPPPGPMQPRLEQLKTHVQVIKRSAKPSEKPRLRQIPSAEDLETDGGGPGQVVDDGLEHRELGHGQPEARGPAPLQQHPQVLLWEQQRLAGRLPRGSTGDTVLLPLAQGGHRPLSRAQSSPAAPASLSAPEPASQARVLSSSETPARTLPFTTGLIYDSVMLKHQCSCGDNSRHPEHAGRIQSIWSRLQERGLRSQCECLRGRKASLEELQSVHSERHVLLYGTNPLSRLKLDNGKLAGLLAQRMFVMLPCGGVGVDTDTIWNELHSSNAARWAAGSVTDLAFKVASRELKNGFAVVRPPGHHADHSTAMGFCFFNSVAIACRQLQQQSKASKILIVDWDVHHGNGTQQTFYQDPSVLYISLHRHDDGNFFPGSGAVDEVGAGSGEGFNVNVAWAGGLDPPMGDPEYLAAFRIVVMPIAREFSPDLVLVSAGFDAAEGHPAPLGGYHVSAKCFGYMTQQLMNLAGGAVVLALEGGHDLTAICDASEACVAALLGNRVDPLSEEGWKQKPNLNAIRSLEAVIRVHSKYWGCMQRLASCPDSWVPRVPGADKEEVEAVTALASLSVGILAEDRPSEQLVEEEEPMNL
Chain of HDAC9 (Q9UKV0 whole entry): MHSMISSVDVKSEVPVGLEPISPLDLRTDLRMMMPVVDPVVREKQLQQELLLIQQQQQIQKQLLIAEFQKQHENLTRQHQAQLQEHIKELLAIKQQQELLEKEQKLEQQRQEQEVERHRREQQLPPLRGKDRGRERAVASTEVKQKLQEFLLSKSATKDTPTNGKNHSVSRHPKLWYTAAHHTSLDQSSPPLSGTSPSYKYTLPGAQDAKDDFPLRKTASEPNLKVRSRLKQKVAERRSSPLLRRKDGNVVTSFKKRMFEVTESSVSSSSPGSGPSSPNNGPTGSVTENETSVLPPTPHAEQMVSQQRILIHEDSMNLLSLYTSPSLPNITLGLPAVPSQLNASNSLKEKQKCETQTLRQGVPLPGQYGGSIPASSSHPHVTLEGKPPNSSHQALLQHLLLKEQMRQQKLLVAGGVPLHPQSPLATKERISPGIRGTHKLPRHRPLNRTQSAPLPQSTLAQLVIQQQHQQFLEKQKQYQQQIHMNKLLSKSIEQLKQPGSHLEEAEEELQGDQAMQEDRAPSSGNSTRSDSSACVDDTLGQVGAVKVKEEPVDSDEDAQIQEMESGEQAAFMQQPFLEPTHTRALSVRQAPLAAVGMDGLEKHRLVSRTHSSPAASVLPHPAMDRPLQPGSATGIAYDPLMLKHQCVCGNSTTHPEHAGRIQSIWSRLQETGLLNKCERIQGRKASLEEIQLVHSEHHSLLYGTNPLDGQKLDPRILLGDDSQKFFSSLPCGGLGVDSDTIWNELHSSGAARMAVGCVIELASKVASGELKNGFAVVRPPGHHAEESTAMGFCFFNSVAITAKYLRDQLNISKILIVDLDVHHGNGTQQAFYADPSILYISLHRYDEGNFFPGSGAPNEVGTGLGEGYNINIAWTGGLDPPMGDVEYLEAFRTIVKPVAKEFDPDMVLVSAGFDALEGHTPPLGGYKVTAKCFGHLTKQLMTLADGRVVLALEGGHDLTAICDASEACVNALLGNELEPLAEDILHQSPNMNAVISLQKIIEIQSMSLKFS
Chain of HDAC11 (Q96DB2 whole entry): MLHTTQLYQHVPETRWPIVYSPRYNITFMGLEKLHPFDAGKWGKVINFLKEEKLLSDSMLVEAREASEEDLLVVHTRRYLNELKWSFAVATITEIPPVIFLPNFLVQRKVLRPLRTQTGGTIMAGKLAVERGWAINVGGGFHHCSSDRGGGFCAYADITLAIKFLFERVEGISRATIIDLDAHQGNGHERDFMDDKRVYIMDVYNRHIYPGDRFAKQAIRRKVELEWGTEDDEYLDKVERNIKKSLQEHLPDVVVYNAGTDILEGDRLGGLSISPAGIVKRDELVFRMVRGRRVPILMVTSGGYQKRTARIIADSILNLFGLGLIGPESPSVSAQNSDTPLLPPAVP
Chain of HDAC10 (Q969S8 whole entry): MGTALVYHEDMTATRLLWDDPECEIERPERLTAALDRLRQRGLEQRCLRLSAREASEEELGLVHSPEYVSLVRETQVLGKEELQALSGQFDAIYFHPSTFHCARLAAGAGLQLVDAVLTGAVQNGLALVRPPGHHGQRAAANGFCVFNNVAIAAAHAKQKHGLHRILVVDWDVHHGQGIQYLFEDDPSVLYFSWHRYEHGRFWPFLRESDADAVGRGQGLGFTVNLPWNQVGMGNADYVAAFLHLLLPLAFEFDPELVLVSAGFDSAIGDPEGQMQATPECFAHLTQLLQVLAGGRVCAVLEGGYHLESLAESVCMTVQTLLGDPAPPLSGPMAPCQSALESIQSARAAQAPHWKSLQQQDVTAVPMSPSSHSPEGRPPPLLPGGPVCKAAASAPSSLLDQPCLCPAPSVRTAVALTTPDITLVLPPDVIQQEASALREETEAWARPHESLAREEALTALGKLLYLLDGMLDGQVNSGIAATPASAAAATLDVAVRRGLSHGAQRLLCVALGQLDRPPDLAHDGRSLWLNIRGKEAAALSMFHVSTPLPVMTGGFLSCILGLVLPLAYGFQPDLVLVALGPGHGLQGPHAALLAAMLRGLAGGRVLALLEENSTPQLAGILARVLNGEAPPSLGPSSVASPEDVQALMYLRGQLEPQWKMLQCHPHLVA

IC50 [2, 17] [nM]	SMILES	IC50 [1, 16] [nM]	IC50 [3, 18] [nM]	IC50 [4, 19] [nM]	IC50 [5, 20] [nM]	IC50 [6, 21] [nM]	IC50 [1, 22] [nM]	IC50 ([2]; U-266, 72 h) [nM]	IC50 ([3]; PaCa-2, 72 h) [nM]	IC50 ([4]; PBMC, 72 h) [nM]	IC50 ([5]; AMO1, 72 h) [nM]	IC50 [7, 23] [nM]	IC50 [8, 21] [nM]	IC50 [9, 21] [nM]	also measured
620	O=C(NO)c1ccc2nc(-c3ccc(-c4cccc(Cl)c4)s3)[nH]c2c1 [Example 177, 2-[5-(3-chlorophenyl)thiophen-2-yl]-N-hydroxy-1H-benzimidazole-6-carboxamide]	5.1	1100	> 20000	3500	–	–	–	–	–	–	–	–	–	–
640	CCCCCCCCCc1ccc(-c2nc3ccc(C(=O)NO)cc3[nH]2)cc1 [Example 161, 2-(4-nonylphenyl)-N-hydroxy-1H-benzimidazole-6-carboxamide]	–	610	> 20000	5500	–	–	–	–	–	–	–	–	–	–
490	O=C(NO)c1ccc2nc(-c3ccc(-c4cccc(Cl)c4)cc3)[nH]c2c1 [Example 151, 2-(3′-chlorobiphenyl-4-yl)-N-hydroxy-1H-benzimidazole-6-carboxamide]	–	1000	> 20000	1900	–	–	–	–	–	–	–	–	–	–

The next lines start with the compound.

SMILES	IC50 [2, 17] [nM]	IC50 [1, 16] [nM]	IC50 [3, 18] [nM]	IC50 [4, 19] [nM]	IC50 [5, 20] [nM]	IC50 [6, 21] [nM]	IC50 [1, 22] [nM]	IC50 ([2]; U-266, 72 h) [nM]	IC50 ([3]; PaCa-2, 72 h) [nM]	IC50 ([4]; PBMC, 72 h) [nM]	IC50 ([5]; AMO1, 72 h) [nM]	IC50 [7, 23] [nM]	IC50 [8, 21] [nM]	IC50 [9, 21] [nM]	also measured
CCCCc1ccc(-c2nc3ccc(C(=O)NO)cc3[nH]2)cc1 [Example 162, 2-(4-butylphenyl)-N-hydroxy-1H-benzimidazole-6-carboxamide]	–	31	–	–	–	94000	31	740	820	> 20000	3700	7700	11000	190	–
Cc1cc(O)cc(C)c1-c1nc2ccc(C(=O)NO)cc2[nH]1 [Example 15, N-hydroxy-2-(4-hydroxy-2,6-dimethylphenyl)-1H-benzimidazole-6-carboxamide]	–	69	–	–	–	–	–	–	–	–	–	–	–	–	IC50 [10]: > 10000 nM; IC50 [6, 24]: > 10000 nM; IC50 ([1]; full HDAC panel, top concentration 10 μM, read-out: IC50 HDAC6): 69 nM; IC50 [11]: > 10000 nM; IC50 [12]: > 10000 nM; IC50 ([7]; read-out: IC50 HDAC 1, full HDAC panel, top concentration 10 μM): > 10000 nM; IC50 [13]: 6900 nM; IC50 [14]: 3000 nM; IC50 [8, 24]: 8200 nM; IC50 [9, 24]: > 10000 nM; IC50 [15]: > 10000 nM
O=C(NO)c1ccc2nc(-c3ccc(Br)cc3)[nH]c2c1 [Example 3, 2-(4-bromophenyl)-N-hydroxy-1H-benzimidazole-6-carboxamide]	2900	45	6000	> 20000	6300	–	–	–	–	–	–	–	–	–	–
CC(C)c1ccc(-c2nc3ccc(C(=O)NO)cc3[nH]2)cc1 [Example 50, N-hydroxy-2-[4-(1-methylethyl)phenyl]-1H-benzimidazole-6-carboxamide]	–	14	–	–	–	32000	14	580	290	> 20000	2000	3300	3400	420	–
O=C(NO)c1ccc2nc(-c3cccc(Br)c3)[nH]c2c1 [Example 21, 2-(3-bromophenyl)-N-hydroxy-1H-benzimidazole-6-carboxamide]	–	12	–	–	–	9300	12	7800	4300	> 20000	7000	1500	780	62	–
